Measurements reported in patent US20260258420A1, “COMPOSITIONS AND METHODS FOR THE TREATMENT OF HUMAN PAPILLOMAVIRUS-DRIVEN CANCERS” (priority 2023, published 2026).

What was measured:
[1] = system: HPV-negative UMSCC22A cells; test: In vivo tumor growth, HPV-negative xenograft; parameters: species or system mice; conditions: 10 mg/kg oral gavage 5 days per week for 21 days, high Rb protein levels
Description: PDX tumors HOSC144 (FIG. 3A, FIG. 3E, FIG. 3F), HOSC19 (FIG. 3B), and HOSC156 (FIG. 3C) were implanted into the flanks of nude mice. After engraftment, mice were randomized and assigned into 1 of 2 treatment groups: vehicle (β-cyclodextrin, n=8) or alisertib (10 mg/kg, n=8). Mice were treated for 3 weeks by daily oral gavage. Tumor size was measured twice a week. FIG. 3A, FIG. 3B, and FIG. 3C show in vivo tumor growth curves for individual mice (left 3 panels). Survival (right panels) was measured using the Kaplan-Meier method. In FIG. 3D, HPV-negative UMSCC22A cells were injected subcutaneously (3×10^6 cells) on the right flanks of the mice. Once the tumor volume reached ≥60 mm^3, mice were randomized into treatment groups. Mice were treated with vehicle or 10 mg/kg alisertib by oral gavage for 5 days per week for 21 days. Tumor size was measured twice a week. […] The Ki67(%) was calculated as the ratio of proliferative cells to total cells in each field, using five random fields. […] The apoptotic (%) was calculated as the ratio of apoptotic cells to total cells in each field, using five random fields in HOSC144 PDX tumors after 8 or 21 days of treatment with either vehicle or alisertib. ** P≤0.01; *** P≤0.001. Bars, […]. […]

[2] = system: 16 HPV-positive HNSCC and cervical squamous cancer cell lines; test: High-throughput drug screen (HTDS), cell death by AOC_LD, HPV-positive cell lines; type: cell-based
Description: The concordance correlation coefficient was computed to assess the reproducibility of the normalized growth rates of the 2 replicates. […] A chi-square test was applied to compare drug classification and the cluster membership. The Fisher exact test was applied to compare mutations status (wild-type and mutant) and drugs' response data (sensitive and resistant).
The effects of 864 unique drugs from 51 classes was tested in 16 HPV-positive and 17 HPV-negative HNSCC and cervical squamous cancer cell lines (Table 2) that were characterized previously (Kaiu, et al., Oncotarget 2017; 8(49):86369-83).

[3] = system: 3 HPV-positive and 3 HPV-negative cell lines; test: Immunoblot of cleaved PARP and cleaved caspase-3; type: cell-based; conditions: 72 hours or 2 doubling times
Description: BrdU positive apoptotic cells were detected and quantified. The bar graph indicates the percentage of apoptotic cells with fragmented DNA in HPV-positive and HPV-negative cell lines. Values are the means±the standard deviations for 3 independent experiments. FIG. 2B and FIG. 2C show immunoblots of cleaved PARP (Cl. PARP) and cleaved caspase-3 (Cl. […] UM47, UMSCC47; GAPDH, glyceraldehyde 3-phosphate dehydrogenase. Western blot analysis was performed as described previously (Ferrarotto, et al., Clin Cancer Res 2016; 22(7):1674-86). In brief, cells were lysed with ice-cold lysis buffer, and the lysates were centrifuged at 20,000×g for 10 minutes at 4° C. Cell lysates containing equal amounts of protein were resolved using sodium dodecyl sulfate-polyacrylamide gel electrophoresis, transferred to nitrocellulose membranes, and incubated with different primary antibodies. Protein expression was detected using a horseradish peroxidase-conjugated secondary antibody (Bio-Rad, Hercules, CA) and electrochemiluminescence reagent (Amersham Biosciences, Pittsburgh, PA).

[4] = system: HN31 and MDA886LN cells expressing RB1 shRNA; test: Apoptosis with TRIP13 overexpression, RB1-knockdown HPV-negative cells; type: cell-based; conditions: 300 nmol/L
Description: FIG. 5A, two HPV-positive cell lines (CASKI and SIHA) were transfected with BUB1B or MAD2L1 siRNA and then treated for 24 hours with 300 nmol/L alisertib before lysis and immunoblotting with the indicated antibodies. FIG. 5B, TRIP13 was transiently overexpressed (Ox) in 2 HPV-positive cell lines that were treated for 24 hours with 300 nmol/L alisertib before lysis and immunoblotting for the indicated proteins. FIG. 5C, HPV-positive cell lines with TRIP13 overexpression were treated with 300 nmol/L alisertib for 32 hours and then stained for annexin V-PE/7AAD staining and analysis with flow cytometry to measure apoptosis. The bar graph represents the ratio of apoptosis (late plus early) among different groups. Values are the means±the standard deviations for 3 independent experiments. ** P≤0.01; *** P≤0.001; unpaired, 2-tailed Student t-test. FIG. 5D, HN31 (left panel) and MDA886LN (right panel) cells expressing RB1 or control shRNA were transfected with a plasmid for TRIP13. After 24 hours, cells were treated with 300 nmol/L alisertib and then lysed for immunoblotting. Cl, cleaved; Fl, full length; GAPDH, glyceraldehyde 3-phosphate dehydrogenase.
In normal cells, prolonged mitosis resulting from Mad2 overexpression can lead to G1 arrest or mitotic cell death, so it is unclear why Mad2 overexpression is tolerated in HPV-positive cancers. […]

## COc1cc(Nc2ncc3c(n2)-c2ccc(Cl)cc2C(c2c(F)cccc2OC)=NC3)ccc1C(=O)O [ALISERTIB, alisertib]
[1]
  tumor response: resistant
[2]; resistant = AOC_LD 0
  HPV positive Resistant (number of cell lines): 6
[2]; sensitive = AOC_LD greater than 0
  HPV positive Sensitive (number of cell lines): 10
[3]
  caspase-3 activation and PARP cleavage: selective caspase-3 activation and PARP cleavage in HPV-positive cancer cell lines
[4]
  apoptosis with TRIP13 overexpression: reduced apoptosis
